Measurements as given in PMC10971446 (Marine Drugs, 2024).
Where a SMILES comes first, the peptide text is derived from it. Bridges are numbered along the chain shown (N, C = ends). [ ]: non-standard residue; d: D form. pGlu = O=C1CC[C@@H](C(=O)O)N1

What was measured:
mouse DRG neurons = details: cited from earlier work
[1] = test system: ACh+PNU-responsive mouse DRG neurons (α7 nAChR); assay type: cell-based
mouse α6/α3β4 nAChR = mouse α6/α3β4 nAChR (Mus musculus, UniProt Q8R493+Q8R4G9+Q9R0W9); assay type: cell-based
α7 nAChR = details: cited from earlier work

Sequence of mouse α6/α3β4 nAChR (Q8R493 whole entry, looked up): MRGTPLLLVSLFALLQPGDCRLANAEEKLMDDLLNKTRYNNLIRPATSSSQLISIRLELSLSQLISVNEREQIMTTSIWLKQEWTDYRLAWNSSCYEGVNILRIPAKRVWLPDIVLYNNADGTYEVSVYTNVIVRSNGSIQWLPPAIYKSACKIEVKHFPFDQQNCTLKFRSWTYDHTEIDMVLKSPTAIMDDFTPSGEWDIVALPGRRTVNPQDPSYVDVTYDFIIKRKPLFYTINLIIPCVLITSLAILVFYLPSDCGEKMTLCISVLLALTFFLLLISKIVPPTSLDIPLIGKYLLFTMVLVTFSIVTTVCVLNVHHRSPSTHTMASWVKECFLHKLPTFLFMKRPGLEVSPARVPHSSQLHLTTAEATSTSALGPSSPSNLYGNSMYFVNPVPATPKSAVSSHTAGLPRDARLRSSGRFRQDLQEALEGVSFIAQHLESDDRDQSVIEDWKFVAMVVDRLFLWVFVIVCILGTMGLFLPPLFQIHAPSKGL
Sequence of mouse α6/α3β4 nAChR (Q8R4G9 whole entry, looked up): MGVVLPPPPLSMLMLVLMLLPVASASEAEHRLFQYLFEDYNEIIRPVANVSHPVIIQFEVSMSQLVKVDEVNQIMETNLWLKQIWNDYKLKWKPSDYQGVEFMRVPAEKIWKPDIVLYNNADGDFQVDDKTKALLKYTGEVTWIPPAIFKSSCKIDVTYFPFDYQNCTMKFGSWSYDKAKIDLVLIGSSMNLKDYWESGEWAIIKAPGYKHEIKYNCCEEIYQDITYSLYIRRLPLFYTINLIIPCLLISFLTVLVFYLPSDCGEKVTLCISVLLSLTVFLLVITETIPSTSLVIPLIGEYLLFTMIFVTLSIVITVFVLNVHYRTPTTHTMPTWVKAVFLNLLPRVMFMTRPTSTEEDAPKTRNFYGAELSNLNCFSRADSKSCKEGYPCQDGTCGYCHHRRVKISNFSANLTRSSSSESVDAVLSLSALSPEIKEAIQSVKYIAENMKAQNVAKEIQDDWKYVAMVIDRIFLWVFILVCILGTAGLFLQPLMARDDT
Sequence of mouse α6/α3β4 nAChR (Q9R0W9 whole entry, looked up): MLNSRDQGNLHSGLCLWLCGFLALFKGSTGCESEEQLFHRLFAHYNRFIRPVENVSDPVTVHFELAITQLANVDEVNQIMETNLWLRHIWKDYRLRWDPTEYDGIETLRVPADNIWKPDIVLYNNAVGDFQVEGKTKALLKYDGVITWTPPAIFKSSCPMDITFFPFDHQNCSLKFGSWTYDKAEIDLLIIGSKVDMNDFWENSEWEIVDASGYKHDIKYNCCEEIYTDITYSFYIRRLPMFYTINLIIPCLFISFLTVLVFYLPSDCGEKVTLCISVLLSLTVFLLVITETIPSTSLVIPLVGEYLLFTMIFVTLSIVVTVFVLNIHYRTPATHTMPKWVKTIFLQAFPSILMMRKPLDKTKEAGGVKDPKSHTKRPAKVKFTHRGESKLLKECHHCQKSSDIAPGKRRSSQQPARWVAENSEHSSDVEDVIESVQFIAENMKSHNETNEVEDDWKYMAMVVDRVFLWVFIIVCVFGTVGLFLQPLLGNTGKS

Compound | calcium response of DRG neurons to agonist (mouse DRG neurons) | calcium response to ACh alone or ACh+PNU in α7-expressing DRG neurons [1] | loss of potency on α6/α3β4 compared to αCtx-PeIA (mouse α6/α3β4 nAChR) | α7 modulation (α7 nAChR)
CC(=O)OCC[N+](C)(C)C [ACh, acetylcholine] | a subset of mouse DRG neurons responds to serial application of 1 mM acetylcholine (ACh) with elevation of intracellular calcium | did not cause calcium influx in these cells | – | –
CC(C)C[C@@H]1NC(=O)[C@H](CCC(=O)O)NC(=O)[C@@H]2CCCN2C(=O)[C@H](Cc2c[nH]cn2)NC(=O)[C@H](CC(N)=O)NC(=O)[C@H](C(C)C)NC(=O)[C@H](CO)NC(=O)[C@@H]2CSSC[C@H](NC(=O)CNC(=O)[C@@H]3CCC(=O)N3)C(=O)N[C@@H](CSSC[C@@H](C(=O)N[C@@H](Cc3c[nH]c4ccccc34)C(=O)O)NC1=O)C(=O)N[C@@H](CO)C(=O)N[C@@H](Cc1c[nH]cn1)C(=O)N1CCC[C@H]1C(=O)N[C@@H](C)C(=O)N2 [αCtx-AtIA] ([pGlu]GCCSHPACSVNHPELCW-OH; disulfide 3-9, 4-17) | – | – | ~ 5 fold | –
PNU-120596 | – | co-application of ACh and PNU uncovered a calcium response | – | α7 positive allosteric modulator
